This test deals with T1, Endothelin-1 receptor (Sus scrofa, UniProt Q29010).
T1 sequence (Q29010 whole entry): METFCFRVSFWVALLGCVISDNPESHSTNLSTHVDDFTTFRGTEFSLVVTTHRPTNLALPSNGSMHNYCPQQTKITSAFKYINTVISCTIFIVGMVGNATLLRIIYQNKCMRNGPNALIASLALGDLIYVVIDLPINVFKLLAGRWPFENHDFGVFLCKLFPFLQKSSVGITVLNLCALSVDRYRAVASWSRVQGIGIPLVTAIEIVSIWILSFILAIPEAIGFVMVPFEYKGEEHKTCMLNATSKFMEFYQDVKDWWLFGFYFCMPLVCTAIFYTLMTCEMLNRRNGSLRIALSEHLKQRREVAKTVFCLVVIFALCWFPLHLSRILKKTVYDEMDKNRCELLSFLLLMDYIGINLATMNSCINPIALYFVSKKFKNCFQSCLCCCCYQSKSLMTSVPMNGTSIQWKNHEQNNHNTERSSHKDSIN
The test is described as follows: The compound was tested for binding inhibitory activity against Endothelin A receptor from porcine aortic smooth muscle membranes.
`CC(C)C[C@@H]1NC(=O)[C@@H](C)NC(=O)[C@H](CC(=O)O)NC(=O)[C@H](Cc2c[nH]c3ccccc23)NC(=O)[C@@H](CC(C)C)NC1=O` yielded an IC50 max of 440 nM.
For `CC[C@H](C)[C@H]1NC(=O)[C@@H]2CCCN2C(=O)[C@@H](CC(=O)O)NC(=O)[C@@H](Cc2c[nH]c3ccccc23)NC(=O)[C@H](CC(C)C)NC1=O`, the IC50 max is 12 nM.
To `CC[C@@H](C)[C@H]1NC(=O)[C@@H]2CCCN2C(=O)[C@@H](CC(=O)O)NC(=O)[C@@H](Cc2c[nH]c3ccccc23)NC(=O)[C@H](CC(C)C)NC1=O` belongs 64 nM.
To `CC(C)C[C@@H]1NC(=O)[C@@H]([C@H](C)O)NC(=O)[C@H](C)NC(=O)[C@@H](CC(=O)O)NC(=O)[C@@H](Cc2c[nH]c3ccccc23)NC1=O` belongs 4200 nM.
Take `CC(C)C[C@H]1NC(=O)[C@H](C(C)C)NC(=O)[C@H]2C[C@@H](O)CN2C(=O)[C@H](CC(=O)O)NC(=O)[C@H](Cc2c[nH]c3ccccc23)NC1=O`: the IC50 max is 18 nM.
To `CC(C)C[C@@H]1NC(=O)[C@@H](C(C)C)NC(=O)[C@@H]2CCCCN2C(=O)[C@@H](CC(=O)O)NC(=O)[C@@H](Cc2c[nH]c3ccccc23)NC1=O` belongs 13 nM; to `CC(C)C[C@@H]1NC(=O)[C@@H](C(C)C)NC(=O)CN(C)C(=O)[C@@H](CC(=O)O)NC(=O)[C@@H](Cc2c[nH]c3ccccc23)NC1=O` (single isomer, unassigned), 32 nM.
`CC(C)C[C@@H]1NC(=O)[C@@H](C(C)C)NC(=O)[C@H](CCCCN)NC(=O)[C@@H](CC(=O)O)NC(=O)[C@@H](Cc2c[nH]c3ccccc23)NC1=O` (single isomer, unassigned) displayed an IC50 max of 200 nM.
Compound `CC(C)C[C@@H]1NC(=O)[C@@H](C(C)C)NC(=O)[C@H](CO)NC(=O)[C@@H](CC(=O)O)NC(=O)[C@@H](Cc2c[nH]c3ccccc23)NC1=O` (single isomer, unassigned) came in with an IC50 max of 190 nM.
To `CC(C)C[C@@H]1NC(=O)[C@@H](C(C)C)NC(=O)[C@H](Cc2ccccc2)NC(=O)[C@@H](CC(=O)O)NC(=O)[C@@H](Cc2c[nH]c3ccccc23)NC1=O` (single isomer, unassigned) belongs 210 nM.
To `CC(C)C[C@@H]1NC(=O)[C@@H](C(C)C)NC(=O)[C@H](C(C)C)NC(=O)[C@@H](CC(=O)O)NC(=O)[C@@H](Cc2c[nH]c3ccccc23)NC1=O` (single isomer, unassigned) belongs 530 nM; to `CC(C)[C@H]1NC(=O)[C@H](C)NC(=O)[C@@H](CC(=O)O)NC(=O)[C@@H](Cc2c[nH]c3ccccc23)NC(=O)[C@H](CC2CCCCC2)NC1=O` (single isomer, unassigned), 5600 nM; to `CC(C)C[C@@H]1NC(=O)[C@@H](C(C)C)NC(=O)[C@H](CC(=O)O)NC(=O)[C@@H](CC(=O)O)NC(=O)[C@@H](Cc2c[nH]c3ccccc23)NC1=O` (single isomer, unassigned), 180 nM.
To `CC(C)C[C@@H]1NC(=O)[C@@H](C(C)C)NC(=O)[C@H](CCCN=C(N)N)NC(=O)[C@@H](CC(=O)O)NC(=O)[C@@H](Cc2c[nH]c3ccccc23)NC1=O` (single isomer, unassigned) belongs 150 nM.
In turn, `CC(C)C[C@H]1C(=O)N[C@H](Cc2c[nH]c3ccccc23)C(=O)N[C@H](CC(=O)O)C(=O)N2CCC[C@H]2C(=O)N[C@H](C(C)C)C(=O)N1C` (single isomer, unassigned) gave an IC50 max of 35 nM.
Take `CC(C)C[C@@H]1NC(=O)CNC(=O)[C@H](CO)NC(=O)[C@@H](CC(=O)O)NC(=O)[C@@H](Cc2c[nH]c3ccccc23)NC1=O` (single isomer, unassigned): the IC50 max worked out at 35000 nM.
Consider `CC(C)C[C@@H]1NC(=O)[C@@H](C(C)C)NC(=O)[C@H](C)NC(=O)[C@H](CCC(=O)O)NC(=O)[C@H](Cc2c[nH]c3ccccc23)NC1=O` (single isomer, unassigned), for which the IC50 max is listed as more than 100000 nM.
`CC(C)C[C@@H]1NC(=O)[C@@H](C(C)C)NC(=O)[C@H](C)NC(=O)[C@@H](CCC(=O)O)NC(=O)[C@H](Cc2c[nH]c3ccccc23)NC1=O` (single isomer, unassigned) had an IC50 max of more than 100000 nM.
To `CC(C)C[C@@H]1NC(=O)[C@@H](C(C)C)NC(=O)[C@H](C)NC(=O)[C@H](CCC(=O)O)NC(=O)[C@@H](Cc2c[nH]c3ccccc23)NC1=O` (single isomer, unassigned) belongs more than 100000 nM; to `CC(C)C[C@@H]1NC(=O)[C@@H](CC(=O)O)NC(=O)[C@H](CO)NC(=O)[C@@H](CC(=O)O)NC(=O)[C@@H](Cc2c[nH]c3ccccc23)NC1=O` (single isomer, unassigned), more than 100000 nM; to `CC(C)C[C@@H]1NC(=O)[C@@H](C(C)C)NC(=O)[C@H](C)NC(=O)[C@@H](CC(=O)O)NC(=O)[C@@H](Cc2c[nH]c3ccccc23)NC1=O` (single isomer, unassigned), 110 nM.
`CCCC[C@H]1NC(=O)[C@@H]2CCCN2C(=O)[C@@H](CC(=O)O)NC(=O)[C@@H](Cc2c[nH]c3ccccc23)NC(=O)[C@H](CC(C)C)NC1=O` (single isomer, unassigned) yielded an IC50 max of 120 nM.
With `CC(C)C[C@@H]1NC(=O)[C@@H](C(C)C)NC(=O)[C@H](Cc2cnc[nH]2)NC(=O)[C@@H](CC(=O)O)NC(=O)[C@@H](Cc2c[nH]c3ccccc23)NC1=O` (single isomer, unassigned), the IC50 max was found to be 240 nM.
Turning to `CC(C)C[C@@H]1NC(=O)[C@@H](C(C)(C)C)NC(=O)[C@@H]2CCCN2C(=O)[C@@H](CC(=O)O)NC(=O)[C@@H](Cc2c[nH]c3ccccc23)NC1=O` (single isomer, unassigned), the IC50 max is given as 15 nM.
To `CC(C)C[C@@H]1NC(=O)[C@@H](C(C)C)NC(=O)CNC(=O)[C@@H](CC(=O)O)NC(=O)[C@@H](Cc2c[nH]c3ccccc23)NC1=O` (single isomer, unassigned) belongs 160 nM; to `CSCC[C@@H]1NC(=O)[C@@H](CC(=O)O)NC(=O)[C@@H](Cc2c[nH]c3ccccc23)NC(=O)[C@H](CC(C)C)NC(=O)[C@@H](C(C)C)NC1=O` (single isomer, unassigned), 130 nM; to `CC(C)C[C@@H]1NC(=O)[C@@H](C(C)C)NC(=O)[C@@H]2CCCN2C(=O)[C@@H](CCC(=O)O)NC(=O)[C@@H](Cc2c[nH]c3ccccc23)NC1=O` (single isomer, unassigned), 410 nM.
In the case of `CC(C)C[C@@H]1NC(=O)[C@@H](C(C)C)NC(=O)[C@H](CCCN)NC(=O)[C@@H](CC(=O)O)NC(=O)[C@@H](Cc2c[nH]c3ccccc23)NC1=O` (single isomer, unassigned), the IC50 max amounted to 250 nM.
`CC(C)C[C@@H]1NC(=O)[C@@H](C2=CCC=CC2)NC(=O)[C@@H]2CCCN2C(=O)[C@@H](CC(=O)O)NC(=O)[C@@H](Cc2c[nH]c3ccccc23)NC1=O` (single isomer, unassigned) yielded an IC50 max of 19 nM.
Regarding `CCC[C@H]1NC(=O)[C@@H]2CCCN2C(=O)[C@@H](CC(=O)O)NC(=O)[C@@H](Cc2c[nH]c3ccccc23)NC(=O)[C@H](CC(C)C)NC1=O` (single isomer, unassigned), the IC50 max worked out at 47 nM.
On to `CC(C)C[C@@H]1NC(=O)[C@@H](C(C)C)NC(=O)[C@H](CCC(=O)O)NC(=O)[C@@H](CC(=O)O)NC(=O)[C@@H](Cc2c[nH]c3ccccc23)NC1=O` (single isomer, unassigned), for which the IC50 max stood at 140 nM.
To `CC(C)C[C@@H]1NC(=O)[C@@H](C(C)C)NC(=O)[C@H](CCC(N)=O)NC(=O)[C@@H](CC(=O)O)NC(=O)[C@@H](Cc2c[nH]c3ccccc23)NC1=O` (single isomer, unassigned) belongs 160 nM; to `COC(=O)C[C@H]1NC(=O)[C@@H](Cc2c[nH]c3ccccc23)NC(=O)[C@H](CC(C)C)NC(=O)[C@@H](C(C)C)NC(=O)[C@@H]2CCCN2C1=O` (single isomer, unassigned), 390 nM; to `CC(C)C[C@@H]1NC(=O)[C@@H](C(C)C)NC(=O)[C@@H]2CCCN2C(=O)[C@@H](CC(=O)O)NC(=O)[C@@H](Cc2cn(C=O)c3ccccc23)NC1=O` (single isomer, unassigned), 18 nM.
`CC(C)C[C@@H]1NC(=O)[C@@H](c2ccccc2)NC(=O)[C@@H]2CCCN2C(=O)[C@@H](CC(=O)O)NC(=O)[C@@H](Cc2c[nH]c3ccccc23)NC1=O` (single isomer, unassigned) came in with an IC50 max of 24 nM.
To `CC(C)C[C@@H]1NC(=O)[C@@H](C(C)C)NC(=O)C(C)(C)NC(=O)[C@@H](CC(=O)O)NC(=O)[C@@H](Cc2c[nH]c3ccccc23)NC1=O` (single isomer, unassigned) belongs 330 nM; to `CCC[C@@H]1NC(=O)[C@@H](C(C)C)NC(=O)[C@@H]2CCCN2C(=O)[C@@H](CC(=O)O)NC(=O)[C@@H](Cc2c[nH]c3ccccc23)NC1=O` (single isomer, unassigned), 33 nM; to `CC(C)C[C@@H]1NC(=O)[C@@H](C(C)C)NC(=O)[C@@H]2CCCN2C(=O)[C@@H](CCO)NC(=O)[C@@H](Cc2c[nH]c3ccccc23)NC1=O` (single isomer, unassigned), 1700 nM.
Take `CC(C)C[C@@H]1NC(=O)[C@@H](C(C)C)NC(=O)[C@H](C)NC(=O)[C@@H](CCC(=O)O)NC(=O)[C@@H](Cc2c[nH]c3ccccc23)NC1=O` (single isomer, unassigned): the IC50 max amounted to 3000 nM.
To `CC(C)C[C@@H]1NC(=O)[C@@H](C(C)(C)S)NC(=O)[C@@H]2CCCN2C(=O)[C@@H](CC(=O)O)NC(=O)[C@@H](Cc2c[nH]c3ccccc23)NC1=O` (single isomer, unassigned) belongs 49 nM.

These data come from ChEMBL document CHEMBL1128172, “Structure-activity relationships of cyclic pentapeptide endothelin A receptor antagonists” (J Med Chem, 1995).
